Test results published in patent US20170334899A1, “AMINO-SUBSTITUTED ISOTHIAZOLES” (Bayer Pharma Aktiengesellschaft, priority 2014, published 2017).

How the values were obtained:
[1] = tested on: human cervical tumor cell line HeLa (ATCC CCL-2); test: SAC-Formation - Nocodazole-Induced Assay; assay type: cell-based; details: Homo sapiens, HeLa, 24 h, HeLa cells, nocodazole 0.1 μg/ml together with test compound, decrease of mitotic cells (phospho-histone H3 Ser10)
Procedure, shortened: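 Loss of phospho-histone H3 Ser10-positive cells, counted against Hoechst-stained nuclei by high-content imaging, marked mitotic breakthrough. Compounds (0.005–20 μM, 0.5% DMSO) were co-dosed with 0.1 μg/ml nocodazole onto HeLa cells for 24 h at 37 °C. Curves were fitted with a four-parameter Hill equation.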

[2] = tested on: human cervical tumor cell line HeLa (ATCC CCL-2); test: SAC-Formation - Paclitaxel-Induced Assay; assay type: cell-based; details: Homo sapiens, HeLa, 24 h, HeLa cells, paclitaxel 0.05 μM, test range 0.005 μM-20 μM, read-out: IC50 [mol/l] SAC-Formation - Paclitaxel-Induced Assay
Procedure, shortened: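 Read-out is high-content imaging of anti-phospho-H3 Ser10 (mitosis) and Hoechst 33342 (DNA, cell number), with decreased mitotic fraction marking checkpoint breakthrough. Compounds (0.005–20 μM) and 0.05 μM paclitaxel co-added to overnight-plated HeLa for 24 h at 37° C; four-parameter Hill fit.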

| SMILES | IC50 [1] | IC50 [2] |
| --- | --- | --- |
| Cc1nsc(Nc2cnccn2)c1C(=O)Nc1ccc(OCCCNC(=O)OC(C)(C)C)nc1 [Example 47, tert-Butyl (3-{[5-({[3-methyl-5-(pyrazin-2-ylamino)-1,2-thiazol-4-yl]carbonyl}-amino)pyridin-2-yl]oxy}propyl)carbamate] | 3600 nM | 13000 nM |
| COC(=O)c1cccc(NC(=O)c2c(C)nsc2Nc2cnc3ccccc3n2)c1 [Example 50, Methyl 3-({[3-methyl-5-(quinoxalin-2-ylamino)-1,2-thiazol-4-yl]carbonyl}amino)-benzoate] | 4500 nM | 620 nM |
| Cc1nsc(Nc2cnc(C(F)(F)F)cn2)c1C(=O)Nc1ccc(OC2CCNCC2)c(F)c1 [Example 431, N-[3-Fluoro-4-(piperidin-4-yloxy)phenyl]-3-methyl-5-{[5-(trifluoromethyl)pyrazin-2-yl]amino}-1,2-thiazole-4-carboxamide] | 10000 nM | 10000 nM |
| CC(=O)Nc1ccc(NC(=O)c2c(C)nsc2Nc2ccc(C#N)cn2)cn1 [Example 435, N-(6-Acetamidopyridin-3-yl)-5-[(5-cyanopyridin-2-yl)amino]-3-methyl-1,2-thiazole-4-carboxamide] | 12000 nM | 20000 nM |
| Cc1nsc(Nc2cc(C#N)ccn2)c1C(=O)Nc1ccc(OC2CCCNC2)nc1 (centres unmarked) [Example 35, 5-[(4-Cyanopyridin-2-yl)amino]-3-methyl-N-[6-(piperidin-3-yloxy)pyridin-3-yl]-1,2-thiazole-4-carboxamide] | 15000 nM | 20000 nM |
| Cc1nsc(Nc2cnc3ccccc3n2)c1C(=O)Nc1cccc(C(=O)N2CCN(C(=O)OC(C)(C)C)CC2)c1 [Example 55, tert-Butyl 4-[3-({[3-methyl-5-(quinoxalin-2-ylamino)-1,2-thiazol-4-yl]carbonyl}amino)-benzoyl]piperazine-1-carboxylate] | 930 nM | 3100 nM |
| Cc1nsc(Nc2cc(C#N)ccn2)c1C(=O)Nc1ccc(OCCCNC(=O)OC(C)(C)C)nc1 [Example 43, tert-Butyl [3-({5-[({5-[(4-cyanopyridin-2-yl)amino]-3-methyl-1,2-thiazol-4-yl}-carbonyl)amino]pyridin-2-yl}oxy)propyl]carbamate] | 130 nM | 300 nM |
| Cc1nsc(Nc2cnc3ccccc3n2)c1C(=O)Nc1ccc(OCCCNC(=O)OC(C)(C)C)nc1 [Example 42, tert-Butyl (3-{[5-({[3-methyl-5-(quinoxalin-2-ylamino)-1,2-thiazol-4-yl]carbonyl}-amino)pyridin-2-yl]oxy}propyl)carbamate] | 820 nM | 1700 nM |
| Cc1nsc(Nc2ccc(C#N)cn2)c1C(=O)Nc1ccc(OC2CCCNC2)nc1 (centres unmarked) [Example 37, 5-[(5-Cyanopyridin-2-yl)amino]-3-methyl-N-[6-(piperidin-3-yloxy)pyridin-3-yl]-1,2-thiazole-4-carboxamide] | 4200 nM | 5200 nM |
| Cc1nsc(Nc2nc3c(C(F)(F)F)cccc3s2)c1C(=O)Nc1ccc(OCCO)nc1 [Example 2, N-[6-(2-Hydroxyethoxy)pyridin-3-yl]-3-methyl-5-{[4-(trifluoromethyl)-1,3-benzo-thiazol-2-yl]amino}-1,2-thiazole-4-carboxamide] | 560 nM | 460 nM |
| Cc1nsc(Nc2ccc(C#N)cn2)c1C(=O)Nc1ccc(Nc2ccc(F)c(F)c2)nc1 [Example 433, 5-[(5-Cyanopyridin-2-yl)amino]-N-{6-[(3,4-difluorophenyl)amino]pyridin-3-yl}-3-methyl-1,2-thiazole-4-carboxamide] | 210 nM | 1300 nM |
| Cc1nsc(Nc2cnc3ccccc3n2)c1C(=O)Nc1cccc(C(=O)N[C@H](C(=O)OC(C)(C)C)[C@@H](C)OC(C)(C)C)c1 [Example 57, tert-Butyl O-tert-butyl-N-[3-({[3-methyl-5-(quinoxalin-2-ylamino)-1,2-thiazol-4 yl]carbonyl}amino)-benzoyl]threoninate] | 340 nM | 1200 nM |

Stronger by IC50 [1], values ahead:

| IC50 [1] | IC50 [2] | SMILES |
| --- | --- | --- |
| 120 nM | 240 nM | Cc1nsc(Nc2cnc(C(F)(F)F)cn2)c1C(=O)Nc1ccc(CCC2CCN(CCC(F)(F)F)CC2)nc1 [Example 420, 3-Methyl-5-{[5-(trifluoromethyl)pyrazin-2-yl]amino}-N-(6-{2-[1-(3,3,3-trifluoro-propyl)piperidin-4-yl]ethyl}pyridin-3-yl)-1,2-thiazole-4-carboxamide] |
| 81 nM | 59 nM | Cc1nsc(Nc2cnc(C(F)(F)F)cn2)c1C(=O)Nc1ccc(F)c(OC[C@H]2CCCN(CC(F)F)C2)c1 [Example 400, N-(3-{[(3S)-1-(2,2-difluoroethyl)piperidin-3-yl]methoxy}-4-fluorophenyl)-3-methyl-5-{[5-(trifluoromethyl)pyrazin-2-yl]amino}-1,2-thiazole-4-carboxamide] |
| 74 nM | 320 nM | CCN1CC[C@H](Oc2ccc(NC(=O)c3c(C)nsc3Nc3cnc(C(F)(F)F)cn3)cn2)[C@H](F)C1 [Example 424, N-(6-{[(3R,4S)-1-Ethyl-3-fluoropiperidin-4-yl]oxy}pyridin-3-yl)-3-methyl-5-{[5-(trifluoromethyl)pyrazin-2-yl]amino}-1,2-thiazole-4-carboxamide] |
| 63 nM | 20 nM | Cc1nsc(Nc2cnc(C(F)(F)F)cn2)c1C(=O)Nc1ccc(OC[C@H]2CCN(CC(F)(F)F)C2)nc1 [Example 404, 3-Methyl-N-(6-{[(3S)-1-(2,2,2-trifluoroethyl)pyrrolidin-3-yl]methoxy}pyridin-3-yl)-5-{[5-(trifluoromethyl)pyrazin-2-yl]amino}-1,2-thiazole-4-carboxamide] |
| 43 nM | 110 nM | Cc1nsc(Nc2cnc(C(F)(F)F)cn2)c1C(=O)Nc1ccc(OC2CCN(C(=O)OC(C)(C)C)CC2)nc1 [Example 5, tert-Butyl 4-[(5-{[(3-methyl-5-{[5-(trifluoromethyl)pyrazin-2-yl]amino}-1,2-thiazol-4-yl)carbonyl]amino}pyridin-2-yl)oxy]piperidine-1-carboxylate] |
| 39 nM | 79 nM | Cc1nsc(Nc2cnc(C(F)(F)F)cn2)c1C(=O)Nc1ccc(OCCN2CCC(F)(F)CC2)nc1 [Example 407, N-{6-[2-(4,4-Difluoropiperidin-1-yl)ethoxy]pyridin-3-yl}-3-methyl-5-{[5-(trifluoromethyl)pyrazin-2-yl]amino}-1,2-thiazole-4-carboxamide] |
| 38 nM | 130 nM | Cc1nsc(Nc2cnc(C(F)(F)F)cn2)c1C(=O)Nc1ccc(F)c(OC[C@H]2CCCN(CC(F)(F)F)C2)c1 [Example 419, N-(4-Fluoro-3-{[(3S)-1-(2,2,2-trifluoroethyl)piperidin-3-yl]methoxy}phenyl)-3-methyl-5-{[5-(trifluoromethyl)pyrazin-2-yl]amino}-1,2-thiazole-4-carboxamide] |
| 33 nM | 49 nM | CCN1CCC(Oc2ccc(NC(=O)c3c(C)nsc3Nc3cnc(C(F)(F)F)cn3)cn2)C(F)(F)C1 (centres unmarked) [Example 406, N-{6-[(1-Ethyl-3,3-difluoropiperidin-4-yl)oxy]pyridin-3-yl}-3-methyl-5-{[5-(trifluoromethyl)pyrazin-2-yl]amino}-1,2-thiazole-4-carboxamide] |
| 21 nM | 39 nM | Cc1nsc(Nc2cnc(C(F)(F)F)cn2)c1C(=O)Nc1ccc(O[C@@H]2CN(CCC(F)(F)F)C[C@@H]2F)nc1 [Example 409, N-(6-{[(3R,4S)-4-Fluoro-1-(3,3,3-trifluoropropyl)pyrrolidin-3-yl]oxy}pyridin-3-yl)-3-methyl-5-{[5-(trifluoromethyl)pyrazin-2-yl]amino}-1,2-thiazole-4-carboxamide] |
| 18 nM | 53 nM | Cc1nsc(Nc2cnc(C(F)(F)F)cn2)c1C(=O)Nc1ccc(F)c(O[C@H]2CCN(CCC(F)(F)F)C2)c1 [Example 415, N-(4-Fluoro-3-{[(3S)-1-(3,3,3-trifluoropropyl)pyrrolidin-3-yl]oxy}phenyl)-3-methyl-5-{[5-(trifluoromethyl)pyrazin-2-yl]amino}-1,2-thiazole-4-carboxamide] |
| 16 nM | 260 nM | Cc1nsc(Nc2cnc(C(F)(F)F)cn2)c1C(=O)Nc1ccc(OCCN(C)C(=O)OC(C)(C)C)nc1 [Example 429, tert-Butyl methyl{2-[(5-{[(3-methyl-5-{[5-(trifluoromethyl)pyrazin-2-yl]amino}-1,2-thiazol-4-yl)carbonyl]amino}pyridin-2-yl)oxy]ethyl}carbannate] |
| 10 nM | 42 nM | Cc1nsc(Nc2cnc(C(F)(F)F)cn2)c1C(=O)Nc1ccc(O[C@@H]2CN(CC(F)(F)F)C[C@@H]2F)nc1 [Example 410, N-(6-{[(3R,4S)-4-Fluoro-1-(2,2,2-trifluoroethyl)pyrrolidin-3-yl]oxy}pyridin-3-yl)-3-methyl-5-{[5-(trifluoromethyl)pyrazin-2-yl]amino}-1,2-thiazole-4-carboxamide] |
| 4.2 nM | 27 nM | Cc1nsc(Nc2cnc(C(F)(F)F)cn2)c1C(=O)Nc1ccc(F)c(O[C@H]2CCN(CC(F)(F)F)C2)c1 [Example 416, N-(4-Fluoro-3-{[(35)-1-(2,2,2-trifluoroethyl)pyrrolidin-3-yl]oxy}phenyl)-3-methyl-5-{[5-(trifluoromethyl)pyrazin-2-yl]amino}-1,2-thiazole-4-carboxamide] |
